The test system of series [1] is mouse model of bleomycin-induced pulmonary fibrosis. The experiment in a line: Mouse model of bleomycin-induced pulmonary fibrosis. It counts as in vivo. The method, then:
The improvement effect of the present compound on pulmonary fibrosis (remodeling after lung damage) was evaluated using a mouse model of bleomycin-induced pulmonary fibrosis. […] Because of similarity of histopathological changes to pulmonary fibrosis in humans, this mouse model is widely used for the evaluation of the drug efficacy.
To a fibrosis mouse model (fibrosis model group) given a single dose of bleomycin (1.2 mg/mL), the present compound (0.75 mg/kg/day) was orally administered for 21 days (present compound administration group, n = 9), and biochemical analysis of the lungs and measurement of clinical conditions of the lungs were performed on day 22. For comparison, instead of the present compound, the solvent used to dissolve the present compound was administered to a fibrosis model group in the same manner (vehicle group, n = 10), and biochemical analysis and measurement of clinical conditions of the lungs were performed. As a positive control group, a dexamethasone administration group (0.25 mg/kg administration, n = 9) was used. The biochemical analysis was performed using lung hydroxyproline values as an index. The clinical conditions of the lungs were evaluated by performing Masson’s trichrome staining and calculating Ashcroft scores according to a report of Ashcroft et al. (Ashcroft T et al., J Clin Pathol, 1988; 41:467). The clinical conditions were confirmed by comparing a normal mouse group (normal group, n = 10) with the vehicle group (n = 10), and the improvement effect of the present compound on pulmonary fibrosis was evaluated by comparing the vehicle group (n = 10) with the present compound administration group (n = 9). Differences between the mean values of the groups were tested by the Bonferroni selected pairs test using Prism 4 (GraphPad Software).
Table 1 and FIG. 3(A) and FIG. 3(B) show the results of comparisons of the lung hydroxyproline values and the Ashcroft scores in the groups. The mean values of the groups are expressed as mean±SD, and examination was performed at a 5% significance level.

A further series relates to CML patients. Conditions: according to the NCCN guidelines; cited from earlier work.
Series [2] has as its system cynomolgus monkey model of saphenous arterial thrombus. The experiment in a line: Cynomolgus monkey model of saphenous arterial thrombus (PIT model). Conditions: oral administration to monkeys. It counts as in vivo. How it is done: The thrombus formation inhibitory effect of the present compound was evaluated using a cynomolgus monkey model of saphenous arterial thrombus (PIT model) .
Before the procedure, the present compound suspended in a 0.5% CMC-Na aqueous solution was orally administered to test groups of cynomolgus monkeys at dosages of 0.1, 0.3, 1, and 3 mg/kg. […] A light irradiation probe was placed on a saphenous artery of each cynomolgus monkey to cause thrombus formation by applying green light of 540 nm for 20 minutes at the time of intravenously administering rose bengal (20 mg/kg). A decrease in blood flow due to this thrombus formation was measured with a pulse Doppler blood flowmeter, and the thrombus formation inhibitory effect of the present compound was evaluated by measuring the occlusion time on the first day and the cumulative occlusion time.

In the next series the test system is rats. The experiment in a line: 4-week repeated oral dose toxicity study in rats. It counts as in vivo. Conditions: rats; study details of the similar compound not given.
Series [3] deals with COVID-19 patients with moderate to severe lung damage. Conditions: 13 COVID-19 patients, inhaled; cited from earlier work.
The mark [4] stands for this setting: day 22, present compound 0.75 mg/kg/day oral 21 days, dexamethasone 0.25 mg/kg, mean±SD.

The values that follow come from patent US20230355605A1, “DRUG FOR ENHANCING FIBRINOLYTIC SYSTEM, AND USE THEREFOR” (priority 2020, published 2023).

Regarding `C[C@@H]1C[C@H]2[C@@H]3CCC4=CC(=O)C=C[C@]4(C)[C@@]3(F)[C@@H](O)C[C@]2(C)[C@@]1(O)C(=O)CO` [Dexamethazone, dexamethasone, reference compound], in series [1] (5% significance level), the “Ashcroft score compared with vehicle group” value was “significantly lower” and the “lung hydroxyproline value compared with vehicle group” value is “no significant difference”. Further, in series [1] (setting [4]), the Ashcroft score is recorded as 2.3±0.1 and the Lung hydroxyproline value came out at 71.0±6.7 µg/left lung. With `Cc1ccc(NC(=O)c2ccc(CN3CCN(C)CC3)cc2)cc1Nc1nccc(-c2cccnc2)n1` [imatinib], the “patients who could maintain DMR for more than 2 years after 3 years of treatment” value with CML patients is given as “about 5 % of all CML cases”. Molecule `O=C(Nc1ccc(Cl)cc1C(=O)O)c1cccc(-c2ccccc2)c1` [similar compound, 2-([biphenyl-3-ylcarbonyl]amino)-5-chlorobenzoic acid, reference compound] had a minimum effective dosage in series [2] of 0.3 mg/kg. This molecule displayed a no-observed-adverse-effect level in the series with rats of 20 mg/kg/day.

B1: plasminogen: inhaled plasminogen given to COVID-19 patients in the clinical study by Wu et al. (protein, UniProt P00747 20-810, looked up)
Plasminogen: EPLDDYVNTQGASLFSVTKKQLGAGSIEECAAKCEEDEEFTCRAFQYHSKEQQCVIMAENRKSSIIIRMRDVVLFEKKVYLSECKTGNGKNYRGTMSKTKNGITCQKWSSTSPHRPRFSPATHPSEGLEENYCRNPDNDPQGPWCYTTDPEKRYDYCDILECEEECMHCSGENYDGKISKTMSGLECQAWDSQSPHAHGYIPSKFPNKNLKKNYCRNPDRELRPWCFTTDPNKRWELCDIPRCTTPPPSSGPTYQCLKGTGENYRGNVAVTVSGHTCQHWSAQTPHTHNRTPENFPCKNLDENYCRNPDGKRAPWCHTTNSQVRWEYCKIPSCDSSPVSTEQLAPTAPPELTPVVQDCYHGDGQSYRGTSSTTTTGKKCQSWSSMTPHRHQKTPENYPNAGLTMNYCRNPDADKGPWCFTTDPSVRWEYCNLKKCSGTEASVVAPPPVVLLPDVETPSEEDCMFGNGKGYRGKRATTVTGTPCQDWAAQEPHRHSIFTPETNPRAGLEKNYCRNPDGDVGGPWCYTTNPRKLYDYCDVPQCAAPSFDCGKPQVEPKKCPGRVVGGCVAHPHSWPWQVSLRTRFGMHFCGGTLISPEWVLTAAHCLEKSPRPSSYKVILGAHQEVNLEPHVQEIEVSRLFLEPTRKDIALLKLSSPAVITDKVIPACLPSPNYVVADRTECFITGWGETQGTFGAGLLKEAQLPVIENKVCNRYEFLNGRVQSTELCAGHLAGGTDSCQGDSGGPLVCFEKDKYILQGVTSWGLGCARPNKPGVYVRVSRFVTWIEGVMRNN
Consider B1, for which the lung damage entry in series [3] is “rapid improvement in lung damage”.

B2: plasmin: as printed for NPL 27; probably the inhaled plasminogen of b10 (protein, UniProt P00747 20-810, looked up)
Plasminogen: EPLDDYVNTQGASLFSVTKKQLGAGSIEECAAKCEEDEEFTCRAFQYHSKEQQCVIMAENRKSSIIIRMRDVVLFEKKVYLSECKTGNGKNYRGTMSKTKNGITCQKWSSTSPHRPRFSPATHPSEGLEENYCRNPDNDPQGPWCYTTDPEKRYDYCDILECEEECMHCSGENYDGKISKTMSGLECQAWDSQSPHAHGYIPSKFPNKNLKKNYCRNPDRELRPWCFTTDPNKRWELCDIPRCTTPPPSSGPTYQCLKGTGENYRGNVAVTVSGHTCQHWSAQTPHTHNRTPENFPCKNLDENYCRNPDGKRAPWCHTTNSQVRWEYCKIPSCDSSPVSTEQLAPTAPPELTPVVQDCYHGDGQSYRGTSSTTTTGKKCQSWSSMTPHRHQKTPENYPNAGLTMNYCRNPDADKGPWCFTTDPSVRWEYCNLKKCSGTEASVVAPPPVVLLPDVETPSEEDCMFGNGKGYRGKRATTVTGTPCQDWAAQEPHRHSIFTPETNPRAGLEKNYCRNPDGDVGGPWCYTTNPRKLYDYCDVPQCAAPSFDCGKPQVEPKKCPGRVVGGCVAHPHSWPWQVSLRTRFGMHFCGGTLISPEWVLTAAHCLEKSPRPSSYKVILGAHQEVNLEPHVQEIEVSRLFLEPTRKDIALLKLSSPAVITDKVIPACLPSPNYVVADRTECFITGWGETQGTFGAGLLKEAQLPVIENKVCNRYEFLNGRVQSTELCAGHLAGGTDSCQGDSGGPLVCFEKDKYILQGVTSWGLGCARPNKPGVYVRVSRFVTWIEGVMRNN
As for B2, the lung damage result in series [3] is “improved”.
